Patent US8258173B2, “Melatonin derivatives and their use as antioxidants” (University of Sunderland, priority 2006, dated 2012)
Like-named read-outs stand apart in the source and are kept apart here.

Assays:
[1] = system: HPV-16 immortalized human keratinocyte cell line; test: Cell line test (MTT), keratinocyte proliferation; format: cell-based; details: for IC50: read-out: MTT assay IG50; for anti-proliferative activity (in words): HPV-16 immortalized keratinocyte proliferation
Text: 3-[4′,5′-Dimethylthiazol-2′-yl]-2,5-diphenyltetrazolium bromide (MTT), dimethyl sulphoxide (DMSO), isopropranol, foetal calf serum, and trypan blue were purchased from Sigma-Aldrich. Trypsin 250 was purchased from DIFCO. Ethylenediaminetetraacetic acid (EDTA), glucose, sodium phenol red, sodium chloride, potassium chloride, sodium hydrogen carbonate, potassium dihydrogen phosphate, and disodium hydrogen phosphate were purchased from BDH. Keratinocyte-SFM was purchased from GIBCO. For spectroscopic measurements, MRX Microplate Reader was used, which was controlled by Revelation Version 3.04.
The following solutions were prepared for use in the cell line test (MTT). • 1. Sodium chloride (8 g), potassium chloride (0.2 g), disodium hydrogen phosphate (1.15 g) and potassium dihydrogen phosphate (0.2 g) were dissolved in deionized water (1 L). This PBS solution was warmed to 37° C. at the time of use. • 2. Trypsin 250 (2.5 g), EDTA (0.2 g), glucose (1.0 g), potassium chloride (0.4 g), sodium chloride (8.0 g), sodium phenol red (0.002 g), and sodium hydrogen carbonate (0.58 g) were dissolved in deionized water (1 L). This solution was warmed to 37° C. at the time of use. • 3. Trypsin inhibitor solution was created by using feotal calf (1 ml) and was diluted in 100 ml of PBS. • 4. MTT powder (0.125 g) was dissolved in PBS buffer (25 ml) to give 5 mg/ml of MTT stock solution, which was stored at −20° C. and wrapped in foil to protect from light to create MTT stock solution. • 5. MTT stock solution was defrosted and diluted 1 in 10 in PBS buffer to give 0.5 mg/ml of working solution, which was prepared at the time of use to create an MTT working solution. • 5. Trypan blue solution was created by dissolving Trypan blue (0.04 g) in deionized water (10 ml).
The cell culture consisted of an HPV-16 immortalized human keratinocyte cell line from American Type Culture Collection (ATCC).
Cells were cultured in Serum-Free Keratinocyte Medium (Keratinocyte-SFM) supplemented with recombinant epidermal growth factor (rEGF) and bovine pituitary extract (BPE) in a T-75 flask under conditions of 5% C02 at 37° C. Fluid in the flask was changed with fresh complete medium every 3 days.
When cells grew to 60-80% confluence as determined under a microscope, the flask was washed with PBS. Small amount of trypsin-EDTA solution (1-2 ml) was added to the flask and incubated for 5 minutes at 37° C. When approximately 90% of the cells were dislodged, trypsin inhibitor solution (10 ml) was added to stop trypsin reaction. The cells were spun at 500 rpm for 10 minutes at room temperature. The cell pellet was gently resuspended in 10 ml of media. The basal cells were counted with a haemocytometer by adding trypan blue solution to determine viable cells. The cells were adjusted the density to 1×10^5 cells/mL in media.
A stock solution of each compound was prepared by dissolving compound (20 mg) in DMSO (1 ml), to give 20 mg/mL of stock solution.
A working solution was prepared by diluting a stock solution (20 μl) into media (1.98 ml) to give 200 μg/mL of working solution.
The following steps were performed to carry out the MMT experiment. 100 μl of resuspended cell suspension was added to test wells in 96-well plate, omitting column 11. Media was aspirated from each well after plate was incubated for 24 hours at 37° C., 5% CO2, then wells were washed with PBS. 100 μl of media containing 1% DMSO was added to each test well, omitting column 2. 200 μl of working solution of compound was added to each the wells, B2 to G2. 100 μl of solution was transferred to perform serial dilutions across the plate from column 2 up to column 9, and 100 μl of solution was discard from column 9. The plate was incubated for 3 days at 37° C., 5% C02. Media was removed, and wells were washed with PBS. Then 200 μl of MTT working solution was added to each well. After the plate was incubated for 2 hours at 37° C., MTT solution was removed and wells were washed with PBS. […]

[2] = system: lipid peroxidation in bovine brain extract liposomes (hydroxyl radicals); test: Antioxidant test, TBA assay (lipid peroxidation); format: biochemical; details: for IC50: brain extract liposomes, FeCl3/ascorbic acid, 37° C. 30 min, absorbance 532 nm; for antioxidant activity (in words): scavenging hydroxyl radicals, protection against lipid peroxidation
Method: Ascorbic acid and propylgallate were purchased from Aldrich. N-Butanol and ethanol were purchased from BDH. Butylated hydroxytoluene (BHT), bovine brain extract, FeCl3, thiobarbituric acid (TBA) and PBS (phosphate buffered saline) tablets were purchased from Sigma. For spectroscopic measurements, a UNICAM UVNIS Spectrometer (UV2) was used. A well-controlled water bath was utilized for incubating the test system at the required temperatures. Plastic falcon tubes were used to accommodate the assay. Accurate pipettes were used to dispense the reagents.
The following liposomes and reagents were prepared in order to carry out the experiments. • 1. Brain extract (50 mg) was weighed into a clean universal container. About 7 glass balls and 10 cm^3 of PBS were added. The mixture was sonicated in an ice-water bath until the lipid was suspended and the suspension was homogeneous and milky in appearance. The suspension was kept cool during the sonication, although care was taken not to overfill the bath with ice as the sonication becomes relatively ineffective. • 2. Ascorbic acid (0.0176 g) was dissolved in deionised water and diluted in 100 cm^3 of volumetric flask. • 3. Ferric chloride hexahydrate (0.0270 g) was dissolved in deionized water and diluted in 100 cm^3 of volumetric flask. • 4. Sodium hydroxide (1 g) was dissolved in 500 cm^3 of deionized water. • 5. Phosphate buffered saline was prepared (PBS, pH=7.4). • 6. HCl (338 cm^3, 37%) was diluted with 162 cm^3 deionized water to give 500 cm^3 of 25% HCl. • 7. BHT (5 g) was dissolved in 250 cm^3 ethanol. • 8. TBA (5 g) was added to 500 cm^3, 50 mM NaOH, and the solution was heated with stirring to dissolve all the TBA. • 9. PG (0.1061 g) was dissolved in 500 cm^3 deionized water. • 10. A stock solution of test compound at 10 mg/cm^3 was prepared, the concentration depended on the estimated activity of the substance, and serial dilutions were made to obtain 5.0, 2.5, 1.25, 0.625, 0.3125 and 0.15625 mg/cm^3. The stock solution and these six dilutions were screened in the lipid peroxidation—TEA test, in attempt to obtain a dose response curve for antioxidant efficacy against concentration for the substance.
Sixty-eight centrifuge tubes were numbered. • 1. Test substance (0.1 cm^3) was added to tubes; 10 mg/cm^3 to No. 13-20 of tubes, 5 mg/cm^3 to No. 21-28, 2.5 mg/cm^3 to No. 29-36, 1.25 mg/cm^3 to No. 37-44, 0.625 mg/cm^3 to No. 45-52, 0.3125 mg/cm^3 to No. 53-60, 0.15625 mg/cm^3 to No. 61-68. • 2. PG (0.1 cm^3) was added to 9-12. • 3. Ethanol (0.1 cm^3) was added to No. 5-8. • 4. Deionized water (0.3 cm^3) was added to No. 1-4, deionized water (0.4 cm^3) was added to No. 17-20, 25-28, 33-36, 41-44, 49-52, 57-60, and 65-68. • 5. Liposome (0.2 cm^3) was added to No. 1-4, 5-8, 9-12, 13-16, 21-24, 29-32, 37-40, 45-48, 53-56 and 61-64. • 6. PBS (0.5 cm^3) was added to all tubes. • 7. Ferric chloride (0.1 cm^3, 1 mM) was added to No. 5-8, 9-12, 13-16, 21-24, 29-32, 37-40, 45-48, 53-56, and 61-64. • 8. Ascorbic acid (0.1 cm^3, 1 mM) was added to No. 5-8, 9-12, 13-16, 21-24, 29-32, 37-40, 45-48, 53-56 and 61-64. • 9. The tubes were incubated at 37° C. for 30 min. • 10. BHT (0.1 cm^3, 2%), TBA (0.5 cm^3, 1%) and HCl (0.5 cm^3, 25%) were added to all tubes. • 11. The tubes were heated at 85-90° C. for […]. • 12. The tubes were removed from heater and cooled. • 13. N-Butanol (2.5 cm^3) was added to all tubes. The tubes were then shaken to mix and spun at 3500 rpm at room temperature for 10 min. • 14. N-Butanol (2.5 cm^3) was removed and placed in cuvettes. • 15. Absorbance at 532 nm on a spectrophotometer was recorded, using n-butanol as blank. • 16. The mean and standard deviation were calculated. The % inhibition was calculated using equation (1).
[formula] • All data are expressed and mean±SEM (n=4). % inhibition was used to construct the graph and calculate IC50.

[3] = Homo sapiens, Keratinocyte, 72 h, HPV-16 immortalized human keratinocytes, 3 days incubation
[4] = Homo sapiens, Keratinocyte, 72 h
[5] = HPV-16 immortalized human keratinocytes, 3 days incubation

Row | Molecule | IC50 [1, 3] | IC50 [2] | anti-proliferative activity (in words) [1] | antioxidant activity (in words) [2] | IC50 [1, 4] | IC50 [1, 5]
1 | COc1cc(OC)c2[nH]ccc2c1C1C=NN(C(C)=O)C1 (stereo not drawn) [1-Acetyl-4,5-dihydro-4-(5′,7′-dimethoxyindol-4′-yl)-1H-pyrazole] | 355 µM | 1790 µM |  |  |  | 
2 | COc1ccc2[nH]cc(C3C=NN(C(C)=O)C3)c2c1 (stereo not drawn) [1-Acetyl-4,5-dihydro-4-(5′-methoxyindol-3′-yl)-1H-pyrazole] | 150 µM | 210 µM | much more activity than melatonin | almost the same antioxidant activity as melatonin |  | 
3 | COc1ccc2[nH]cc(C=C[N+](=O)[O-])c2c1OC [4,5-Dimethoxy-3-(2-nitroethenyl)-indole] | 22 µM | 440 µM | very low IG50 values comparative to dithranol |  |  | 
4 | COc1ccc2[nH]cc(C(C[N+](=O)[O-])C[N+](=O)[O-])c2c1OC [4,5-Dimethoxy-3-bis(nitromethyl)methylindole] |  | 1910 µM |  |  | 126 µM | 
5 | COc1ccc2[nH]cc(CCN)c2c1OC [4,5-Dimethoxytryptamine] | < 100 µM | 97 µM |  |  |  | 82.5 µM
6 | COc1cc(OC)c2[nH]ccc2c1CCN [4-(2-Aminoethyl)-5,7-dimethoxyindole] | < 100 µM | 51 µM |  |  |  | 53.9 µM
7 | COc1ccc2[nH]cc(CCNC(C)=O)c2c1OC [4-Methoxymelatonin] | 119 µM | 280 µM | much more activity than melatonin | almost the same antioxidant activity as melatonin |  | 
8 | COc1cc(OC)c2[nH]cc(C=C[N+](=O)[O-])c2c1 [5,7-Dimethoxy-3-(2-nitroethenyl)-indole] | 13.5 µM | 810 µM | very low IG50 values comparative to dithranol |  |  | 
9 | COc1cc(OC)c2[nH]cc(C(C[N+](=O)[O-])C[N+](=O)[O-])c2c1 [5,7-Dimethoxy-3-bis(nitromethyl)methylindole] |  | 1660 µM | anti-proliferative effect |  | 20.2 µM | 
10 | COc1cc(OC)c2[nH]ccc2c1C=C[N+](=O)[O-] [5,7-Dimethoxy-4-(2-nitroethenyl)-indole] | 6.62 µM | 600 µM | very low IG50 values comparative to dithranol |  |  | 
11 | COc1cc(OC)c2[nH]ccc2c1C(C[N+](=O)[O-])C[N+](=O)[O-] [5,7-Dimethoxy-4-{2′-nitro-1′-(nitromethyl)ethyl}indole] |  | 3970 µM |  |  | 145 µM | 
12 | COc1ccc2[nH]cc(C=C[N+](=O)[O-])c2c1 [5-Methoxy-3-(2-nitroethenyl)-indole] | 15.5 µM | 2510 µM | anti-proliferative effect |  |  | 
13 | COc1ccc(N)c(C(=O)CCNC(C)=O)c1 [AMK, reference compound] |  | 280 µM |  |  |  | 408 µM
14 | COc1ccc2[nH]cc(CCNC(C)=O)c2c1 [Melatonin] | > 862 µM |  | inactive |  |  | 
15 | CC(=O)NCCc1c[nH]c2ccc(O)cc12 [N-Acetylseratonin, N-acetylserotonin, reference compound] |  | 750 µM | inactive |  |  | > 917 µM
16 | NCCc1c[nH]c2ccc(O)cc12 [serotonin, reference compound] |  |  | inactive |  |  | 
17 | N-ethylformylmelatonin |  |  | much more activity than melatonin | almost the same antioxidant activity as melatonin |  | 
